According to ChEMBL document CHEMBL5331138, “Potent, Selective, and Membrane Permeable 2-Amino-4-Substituted Pyridine-Based Neuronal Nitric Oxide Synthase Inhibitors” (J Med Chem, 2023):
pKi: −log10 of the molar value.

Key:
[1] = biological target: T1, Nitric oxide synthase 3 (Homo sapiens, UniProt P29474); assay: Inhibition of human eNOS expressed in Escherichia coli using human oxyhemoglobin by hemoglobin (Hb) NO capture assay
T1 sequence (P29474 whole entry): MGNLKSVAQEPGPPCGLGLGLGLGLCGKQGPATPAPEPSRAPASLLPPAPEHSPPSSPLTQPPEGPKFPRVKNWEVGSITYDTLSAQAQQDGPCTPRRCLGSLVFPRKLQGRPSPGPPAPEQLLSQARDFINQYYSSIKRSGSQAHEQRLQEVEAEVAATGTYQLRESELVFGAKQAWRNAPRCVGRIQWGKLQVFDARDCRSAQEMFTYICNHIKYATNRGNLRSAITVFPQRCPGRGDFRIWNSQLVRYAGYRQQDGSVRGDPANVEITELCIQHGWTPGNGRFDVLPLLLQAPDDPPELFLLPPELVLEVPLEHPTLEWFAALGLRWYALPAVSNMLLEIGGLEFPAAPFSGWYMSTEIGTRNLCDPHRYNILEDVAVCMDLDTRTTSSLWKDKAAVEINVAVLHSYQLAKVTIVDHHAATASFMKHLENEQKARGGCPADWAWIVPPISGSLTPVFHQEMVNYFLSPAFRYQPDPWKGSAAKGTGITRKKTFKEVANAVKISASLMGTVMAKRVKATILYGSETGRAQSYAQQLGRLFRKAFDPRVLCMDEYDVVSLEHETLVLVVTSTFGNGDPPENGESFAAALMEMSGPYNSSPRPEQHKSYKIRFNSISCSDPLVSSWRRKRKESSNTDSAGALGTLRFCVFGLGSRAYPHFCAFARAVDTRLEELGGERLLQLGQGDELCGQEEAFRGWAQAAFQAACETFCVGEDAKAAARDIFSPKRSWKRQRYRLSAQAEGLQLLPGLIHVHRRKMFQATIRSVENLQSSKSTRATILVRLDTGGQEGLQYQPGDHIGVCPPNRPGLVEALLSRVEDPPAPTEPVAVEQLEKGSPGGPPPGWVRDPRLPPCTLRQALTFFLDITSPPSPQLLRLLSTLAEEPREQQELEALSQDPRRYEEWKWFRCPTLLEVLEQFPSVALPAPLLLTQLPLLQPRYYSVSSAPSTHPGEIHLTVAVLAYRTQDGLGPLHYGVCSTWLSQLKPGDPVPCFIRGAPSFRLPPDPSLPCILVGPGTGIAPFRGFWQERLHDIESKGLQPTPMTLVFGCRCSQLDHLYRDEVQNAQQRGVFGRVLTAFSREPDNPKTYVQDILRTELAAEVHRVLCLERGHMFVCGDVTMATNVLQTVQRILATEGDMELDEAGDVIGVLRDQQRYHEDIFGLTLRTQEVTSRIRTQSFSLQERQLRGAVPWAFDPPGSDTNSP

[2] = biological target: Nitric oxide synthase, inducible (Homo sapiens, UniProt P35228)
Sequence of Nitric oxide synthase, inducible (P35228 whole entry): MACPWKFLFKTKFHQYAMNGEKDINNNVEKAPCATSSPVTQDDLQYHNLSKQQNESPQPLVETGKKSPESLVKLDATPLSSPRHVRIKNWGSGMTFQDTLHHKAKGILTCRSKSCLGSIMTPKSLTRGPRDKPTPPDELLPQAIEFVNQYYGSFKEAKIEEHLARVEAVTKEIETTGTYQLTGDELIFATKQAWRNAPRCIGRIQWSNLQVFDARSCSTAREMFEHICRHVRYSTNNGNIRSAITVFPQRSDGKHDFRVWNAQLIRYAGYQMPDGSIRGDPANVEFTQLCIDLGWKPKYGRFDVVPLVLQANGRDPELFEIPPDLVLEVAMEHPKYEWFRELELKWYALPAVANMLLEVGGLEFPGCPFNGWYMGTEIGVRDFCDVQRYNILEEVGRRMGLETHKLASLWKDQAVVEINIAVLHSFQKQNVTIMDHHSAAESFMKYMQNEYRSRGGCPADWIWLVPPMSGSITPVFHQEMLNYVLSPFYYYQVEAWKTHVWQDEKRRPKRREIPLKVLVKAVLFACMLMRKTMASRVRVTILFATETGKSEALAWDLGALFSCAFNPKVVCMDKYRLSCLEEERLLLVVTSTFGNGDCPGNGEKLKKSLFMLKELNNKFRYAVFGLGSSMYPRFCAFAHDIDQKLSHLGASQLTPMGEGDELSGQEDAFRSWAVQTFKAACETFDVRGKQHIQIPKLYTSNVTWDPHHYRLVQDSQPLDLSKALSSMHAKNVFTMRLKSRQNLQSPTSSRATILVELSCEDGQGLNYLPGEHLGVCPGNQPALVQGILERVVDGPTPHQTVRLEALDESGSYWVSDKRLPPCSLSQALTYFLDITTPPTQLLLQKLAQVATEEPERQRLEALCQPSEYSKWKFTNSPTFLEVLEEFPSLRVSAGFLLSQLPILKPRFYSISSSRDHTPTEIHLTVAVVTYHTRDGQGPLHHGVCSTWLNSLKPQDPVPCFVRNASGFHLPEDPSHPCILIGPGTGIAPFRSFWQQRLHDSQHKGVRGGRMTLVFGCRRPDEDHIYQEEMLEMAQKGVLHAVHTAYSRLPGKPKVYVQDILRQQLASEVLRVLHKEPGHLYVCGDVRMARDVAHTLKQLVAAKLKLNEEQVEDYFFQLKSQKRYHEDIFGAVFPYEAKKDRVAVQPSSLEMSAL
Description: Inhibition of human iNOS expressed in Escherichia coli using human oxyhemoglobin by hemoglobin (Hb) NO capture assay

[3] = biological target: Nitric oxide synthase 1 (Homo sapiens, UniProt P29475)
Sequence of Nitric oxide synthase 1 (Homo sapiens, UniProt P29475) (P29475 whole entry): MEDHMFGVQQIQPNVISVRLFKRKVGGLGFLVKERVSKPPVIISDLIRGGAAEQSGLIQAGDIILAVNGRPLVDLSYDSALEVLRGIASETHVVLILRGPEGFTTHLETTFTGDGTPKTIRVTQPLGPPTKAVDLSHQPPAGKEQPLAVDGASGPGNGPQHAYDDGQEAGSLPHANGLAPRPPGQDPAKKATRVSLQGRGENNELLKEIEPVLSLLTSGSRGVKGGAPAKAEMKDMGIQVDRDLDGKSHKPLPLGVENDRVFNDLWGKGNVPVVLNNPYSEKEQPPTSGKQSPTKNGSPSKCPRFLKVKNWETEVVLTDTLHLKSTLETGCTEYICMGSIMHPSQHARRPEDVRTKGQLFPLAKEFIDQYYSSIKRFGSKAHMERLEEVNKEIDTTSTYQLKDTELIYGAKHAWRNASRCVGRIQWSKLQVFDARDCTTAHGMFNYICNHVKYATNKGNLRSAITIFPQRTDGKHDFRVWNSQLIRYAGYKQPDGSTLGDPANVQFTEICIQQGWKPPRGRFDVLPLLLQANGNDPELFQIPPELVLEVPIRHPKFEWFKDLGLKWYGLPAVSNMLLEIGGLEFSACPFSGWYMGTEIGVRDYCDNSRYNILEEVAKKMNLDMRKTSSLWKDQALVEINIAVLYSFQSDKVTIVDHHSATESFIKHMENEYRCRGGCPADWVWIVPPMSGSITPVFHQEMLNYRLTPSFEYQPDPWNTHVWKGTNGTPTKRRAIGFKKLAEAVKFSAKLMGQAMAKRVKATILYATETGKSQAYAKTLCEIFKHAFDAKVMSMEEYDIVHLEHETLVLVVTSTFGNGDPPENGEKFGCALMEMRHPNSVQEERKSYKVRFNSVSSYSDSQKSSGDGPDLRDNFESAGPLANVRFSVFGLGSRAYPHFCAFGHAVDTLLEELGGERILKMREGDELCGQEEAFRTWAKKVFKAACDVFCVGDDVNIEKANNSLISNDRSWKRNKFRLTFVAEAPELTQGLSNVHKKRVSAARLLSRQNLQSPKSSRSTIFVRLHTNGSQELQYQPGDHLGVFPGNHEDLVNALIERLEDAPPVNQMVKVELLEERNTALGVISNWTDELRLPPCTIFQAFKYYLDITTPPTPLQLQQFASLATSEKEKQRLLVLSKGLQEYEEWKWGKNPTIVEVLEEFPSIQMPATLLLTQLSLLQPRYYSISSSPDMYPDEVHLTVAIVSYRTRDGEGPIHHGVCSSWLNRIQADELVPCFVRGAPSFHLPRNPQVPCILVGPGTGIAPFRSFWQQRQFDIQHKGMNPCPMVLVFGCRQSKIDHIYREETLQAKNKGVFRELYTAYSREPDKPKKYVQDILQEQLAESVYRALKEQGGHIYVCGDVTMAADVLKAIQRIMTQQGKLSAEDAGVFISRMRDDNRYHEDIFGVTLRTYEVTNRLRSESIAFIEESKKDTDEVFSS
Description: Inhibition of human nNOS expressed in Escherichia coli using human oxyhemoglobin by hemoglobin (Hb) NO capture assay

[4] = mouse, microsomes
[5] = human, microsomes
[6] = biological target: Nitric oxide synthase 1 (Rattus norvegicus, UniProt P29476)
Sequence of Nitric oxide synthase 1 (Rattus norvegicus, UniProt P29476) (P29476 whole entry): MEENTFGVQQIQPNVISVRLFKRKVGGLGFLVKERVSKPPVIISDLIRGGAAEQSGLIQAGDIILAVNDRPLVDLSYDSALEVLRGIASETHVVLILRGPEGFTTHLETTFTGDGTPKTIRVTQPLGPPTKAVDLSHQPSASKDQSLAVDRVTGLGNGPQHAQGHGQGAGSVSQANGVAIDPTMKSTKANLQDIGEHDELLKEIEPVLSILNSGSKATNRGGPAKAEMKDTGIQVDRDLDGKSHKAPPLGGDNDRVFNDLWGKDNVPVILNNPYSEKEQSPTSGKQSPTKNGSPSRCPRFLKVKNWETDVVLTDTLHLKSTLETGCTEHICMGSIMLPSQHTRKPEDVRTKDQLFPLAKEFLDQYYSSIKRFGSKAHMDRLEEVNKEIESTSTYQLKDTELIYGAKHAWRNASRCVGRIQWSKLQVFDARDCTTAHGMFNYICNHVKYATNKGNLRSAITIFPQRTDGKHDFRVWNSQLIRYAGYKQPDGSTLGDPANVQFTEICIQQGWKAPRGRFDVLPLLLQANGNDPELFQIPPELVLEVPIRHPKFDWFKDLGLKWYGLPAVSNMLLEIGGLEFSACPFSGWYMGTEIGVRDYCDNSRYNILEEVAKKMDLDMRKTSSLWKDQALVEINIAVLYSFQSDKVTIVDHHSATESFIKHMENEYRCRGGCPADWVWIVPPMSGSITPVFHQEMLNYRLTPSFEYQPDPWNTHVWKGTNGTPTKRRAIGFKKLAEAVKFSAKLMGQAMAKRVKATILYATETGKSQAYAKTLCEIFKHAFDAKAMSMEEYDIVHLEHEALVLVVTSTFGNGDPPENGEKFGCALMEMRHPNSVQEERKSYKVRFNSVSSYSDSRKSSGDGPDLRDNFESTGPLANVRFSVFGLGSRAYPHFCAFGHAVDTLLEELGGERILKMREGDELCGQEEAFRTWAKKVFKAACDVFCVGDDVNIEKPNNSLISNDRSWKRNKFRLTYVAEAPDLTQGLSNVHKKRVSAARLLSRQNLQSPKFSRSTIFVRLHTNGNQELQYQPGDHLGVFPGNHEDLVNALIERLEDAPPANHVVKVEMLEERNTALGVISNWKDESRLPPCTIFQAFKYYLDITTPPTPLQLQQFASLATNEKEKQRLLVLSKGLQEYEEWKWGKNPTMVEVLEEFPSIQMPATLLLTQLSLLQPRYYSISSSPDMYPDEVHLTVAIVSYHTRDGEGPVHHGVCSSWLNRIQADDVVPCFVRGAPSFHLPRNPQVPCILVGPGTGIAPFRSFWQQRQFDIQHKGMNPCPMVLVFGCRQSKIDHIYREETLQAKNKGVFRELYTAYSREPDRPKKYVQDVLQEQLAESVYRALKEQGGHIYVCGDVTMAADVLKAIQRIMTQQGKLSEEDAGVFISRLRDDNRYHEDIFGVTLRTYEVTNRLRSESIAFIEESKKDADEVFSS
Description: Inhibition of rat nNOS expressed in Escherichia coli using human oxyhemoglobin by hemoglobin (Hb) NO capture assay

Cc1cc(N)nc(CCc2cc(CCN3CCN(C)CC3)cc(F)c2F)c1
pKi [1]: 4.91

Cc1cc(N)nc(C#Cc2cc(CN(C)C)cc(F)c2F)c1.Cl.Cl
pKi [1]: 5.11 | pKi [2]: 4.05 | pKi [3]: 6.50

CCN(CC)CCc1cc(F)c(F)c(CCc2cc(C)cc(N)n2)c1.Cl.Cl
pKi [1]: 4.33

Cc1cc(N)nc(CCc2cc(CCN(C)C)cc(F)c2F)c1.Cl.Cl
t1/2 [4]: 29 min | t1/2 [5]: > 60 min

Cc1cc(N)nc(C#Cc2cc(CCN(C)C)cc(F)c2F)c1
pKi [1]: 4.73 | pKi [2]: 4.31 | pKi [3]: 6.48

CN(C)CCc1cc(F)c(F)c(CCc2cc(C(F)(F)F)cc(N)n2)c1.Cl.Cl
pKi [1]: 4.17

CN(C)CCc1cc(F)c(F)c(CCc2cccc(N)n2)c1
pKi [1]: 4.21 | pKi [3]: 5.78 | pKi [6]: 5.96

Cc1cc(N)nc(CCc2cc(CCN)cc(F)c2F)c1.Cl.Cl
pKi [1]: 4.11 | pKi [2]: 5.76

Cc1cc(N)nc(CCc2cc(CC[C@H]3CCN3C)cc(F)c2F)c1.Cl.Cl
t1/2 [4]: 16 min | t1/2 [5]: > 60 min

Cc1cc(N)nc(/C=C/c2cc(CCN(C)C)cc(F)c2F)c1
pKi [1]: 4.84 | pKi [2]: 4.92 | pKi [3]: 7.32
